Data from patent US11850213B2, “Ophthalmic compositions of rifamycins and uses thereof” (AMD THERAPEUTICS LLC, priority 2014, dated 2023).
In brackets after ≈: the same amount, converted by molar mass. Like-named read-outs stand apart in the source and are kept apart here.

What was measured:
[1] = Rabbit, 0.5% 50 microL, 250 micro g, Sigurdsson et al (2007); cited from earlier work
[2] = Solubility of AMD101 in H2O; format: physicochemical; settings: water
Method: In H2O, the AMD101 can dissolve at approximately 1.4 mg/ml only. However, the concentration was increased as provided herein employing suitable excipients. Those formulations are stable for weeks.

[3] = Dose-response study, retina exposure after 0.25% and 0.5% rifampicin eye drops, LC/MS; format: in vivo, Sprague-Dawley rats; settings: male, Sprague-Dawley, rat, topical
Method: 15 microL of eye drop formulations which are presented as Example 1A and 6A listed in Table 1 and Table 2, respectively, were used to dose the compound to a single eye of a rat. […] In 1 hr after the eye drop application, retina tissues were extracted from the rats under a dissection microscope. In addition, “Non-treatment” negative control was taken, and retina was extracted from a single rat without any treatment. Retinas were placed in a 1.5 ml microcentrifuge tubes (1 retina/tube), and they were extensively washed by DPBS. After the washing procedure, retina tissue in a microcentrifuge tube was frozen in dry ice, and it was stored for quantification by LC/MS analysis.

[4] = Retina exposure of rifampicin after topical eye drops (3 or 10 drops), LC/MS; format: in vivo, Sprague-Dawley rats; settings: Rat, 0.25%
Method: The remaining two rats received the same applications, but 10 drops, to each eye under isoflurane sedation. A single drop contained 5 micro L of the formulation, and applications of each drop had 30 min interval. After the eye drop application, retinas were extracted under a dissection microscope. In addition, “Non-treatment” negative control was taken, and retina was extracted from two rats without any treatment. Retinas were placed in a 1.5 ml microcentrifuge tubes (1 retina/tube), and they were extensively washed by DPBS. After the washing procedure, retina tissue in a microcentrifuge tube was frozen in dry ice, and it was stored for quantification by LC/MS analysis.

[5] = PK study, retina exposure after 0.25% rifampicin eye drop, LC/MS; format: in vivo, Sprague-Dawley rats; settings: male, Sprague-Dawley, 37.5 micro gram, rat
Method: 15 microL of an eye drop formulation which is presented as Example 1A listed in Table 1 was used to dose the compound to a single eye of a rat. […] At time points of 1 hr, 3 hr, and 7 hr after the eye drop application, retina tissues were extracted from the rats under a dissection microscope. In addition, “Non-treatment” negative control was taken, and retina was extracted from a single rat without any treatment. Retinas were placed in a 1.5 ml microcentrifuge tubes (1 retina/tube), and they were extensively washed by DPBS. After the washing procedure, retina tissue in a microcentrifuge tube was frozen in dry ice, and it was stored for quantification by LC/MS analysis.

[6] = Retina exposure of rifampicin after subcutaneous injection, LC/MS; format: in vivo, Sprague-Dawley rats; settings: male, Sprague-Dawley, rat, SC injection 20 mg/Kg (Example 6A), n = 4
Method: At time points of 1 hr, 3 hr, and 7 hr after the SC injection, retina tissues were extracted from the rats under a dissection microscope. In addition, “Non-treatment” negative control was taken, and retina was extracted from two rats without any treatment. Retinas were placed in a 1.5 ml microcentrifuge tubes (1 retina/tube), and they were extensively washed by DPBS. After the washing procedure, retina tissue in a microcentrifuge tube was frozen in dry ice, and it was stored for quantification by LC/MS analysis. […] Amounts detected in retina by the SC injection were equivalent to those delivered by the eye drop application (See Table 3).

In the case of C[C@@H]1C[C@H]2[C@@H]3CCC4=CC(=O)C=C[C@]4(C)[C@@]3(F)[C@@H](O)C[C@]2(C)[C@@]1(O)C(=O)CO [Dexamethasone], the “Drug amount detected in retina” value [1] is given as ~33 ng/g retina ng/g retina tissue.

Molecule CO[C@H]1/C=C/O[C@@]2(C)Oc3c(C)c(O)c4c(O)c(c(/C=N/N5CCN(C)CC5)c(O)c4c3C2=O)NC(=O)/C(C)=C\C=C\[C@H](C)[C@H](O)[C@@H](C)[C@@H](O)[C@@H](C)[C@H](OC(C)=O)[C@@H]1C [Rifampicin] has a solubility [2] of about 1400 µg/mL (≈ 1700 µM), a concentration at 1 hr ([3]; 37.5 micro gram) of 1580 ng/g and a concentration at 1 hr ([3]; 75 micro gram) of 6070 ng/g. The “Drug amount detected in retina” value ([4]; 3 drops (15 microL, 37.5 micro g)) was ~1,288 ng/g retina ng/g retina tissue, the “Drug amount detected in retina” value ([4]; 10 drops (50 microL, 125 micro g)) was ~2,939 ng/g retina ng/g retina tissue and the Tmax ([5]; topical or ocular, 0.25% eye drop 15 microL) was about 1 h. The concentration at 1 hr ([5]; topical, 0.25% eye drop 15 microL (Example 1A), 1 hr, n = 4) was 1580 ng/g, the concentration at 3 hr ([5]; topical, 0.25% eye drop 15 microL (Example 1A), 3 hr, n = 4) was 1150 ng/g and the concentration at 7 hr ([5]; topical, 0.25% eye drop 15 microL (Example 1A), 7 hr, n = 4) was 104 ng/g. The concentration at 1 hr ([6]; 1 hr) was 2660 ng/g, the concentration at 3 hr ([6]; 3 hr) was 3860 ng/g and the concentration at 7 hr ([6]; 7 hr) was 2520 ng/g.
